According to patent US8461152B2, “Arylcyclohexylethers of dihydrotetraazabenzoazulenes” (Hoffmann-La Roche Inc., priority 2008, dated 2013):
Where a name gives a salt, the structure may show the parent alone.

target: T1, human V1a receptor (Homo sapiens, UniProt P37288); assay: human V1a receptor binding studies (SPA, 3H-Vasopressin, membranes of transfected HEK293 cells); conditions: displacement of 3H-Vasopressin, HEK293 cell membranes, 1 h at room temperature; Ki by Cheng-Prussoff equation; read-out: pKi (hV1a) (converted)
T1 construct: expressed in transfected cells; host or cells: HEK293 cells, transiently transfected; membrane preparation
Experimental: The human V1a receptor was cloned by RT-PCR from total human liver RNA. The coding sequence was subcloned in an expression vector after sequencing to confirm the identity of the amplified sequence. […] Cell membranes were prepared from HEK293 cells transiently transfected with the expression vector and grown in 20 liter fermenters with the following protocol.
50 g of cells are resuspended in 30 ml freshly prepared ice cold Lysis buffer (50 mM HEPES, 1 mM EDTA, 10 mM magnesium dichloride adjusted to pH=7.4+complete cocktail of protease inhibitor (Roche Diagnostics)). Homogenized with Polytron for 1 min and sonicated on ice for 2×2 minutes at 80% intensity (Vibracell sonicator). The preparation is centrifuged 20 min at 500 g at 4° C., the pellet is discarded and the supernatant centrifuged 1 hour at 43'000 g at 4° C. (19'000 rpm). The pellet is resuspended in 12.5 ml Lysis buffer+12.5 ml Sucrose 20% and homogenized using a Polytron for 1-2 min. The protein concentration is determined by the Bradford method and aliquots are stored at −80° C. until use. For binding studies 60 mg Yttrium silicate SPA beads (Amersham) are mixed with an aliquot of membrane in binding buffer (50 mM Tris, 120 mM sodium chloride, 5 mM potassium chloride, 2 mM Calcium dichloride, 10 mM magnesium dichloride) for 15 minutes with mixing. 50 μl of bead/membrane mixture is then added to each well of a 96 well plate, followed by 50 μl of 4 nM 3H-Vasopressin (American Radiolabeled Chemicals). For total binding measurement 100 μl of binding buffer are added to the respective wells, for non-specific binding 100 μl of 8.4 mM cold vasopressin and for compound testing 100 μl of a serial dilution of each compound in 2% dimethyl sulfoxide. The plate is incubated 1 h at room temperature, centrifuged […] at 1000 g and counted on a Packard Top-Count. Non-specific binding counts are subtracted from each well and data is normalized to the maximum specific binding set at 100%. To calculate an IC 50 the curve is fitted using a non-linear regression model (XLfit) and the Ki is calculated using the Cheng-Prussoff equation.

T1 sequence (P37288 whole entry): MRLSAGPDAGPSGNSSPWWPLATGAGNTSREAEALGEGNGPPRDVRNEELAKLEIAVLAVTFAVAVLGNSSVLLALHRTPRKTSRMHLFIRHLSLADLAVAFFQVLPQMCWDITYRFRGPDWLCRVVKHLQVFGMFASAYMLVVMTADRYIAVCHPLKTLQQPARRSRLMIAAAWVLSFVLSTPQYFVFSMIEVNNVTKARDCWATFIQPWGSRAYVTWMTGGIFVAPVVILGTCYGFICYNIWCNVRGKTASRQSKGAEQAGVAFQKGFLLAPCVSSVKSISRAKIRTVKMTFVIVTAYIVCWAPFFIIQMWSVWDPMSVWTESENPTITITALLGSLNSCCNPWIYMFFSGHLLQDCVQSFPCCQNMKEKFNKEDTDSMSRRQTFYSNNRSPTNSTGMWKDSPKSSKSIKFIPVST

| SMILES | Ki [nM] |
| --- | --- |
| Cc1cccc(O[C@H]2CC[C@H](c3nnc4n3-c3ccc(Cl)cc3CN(C)C4)CC2)c1 [Example 37, trans-8-Chloro-5-methyl-1-(4-m-tolyloxy-cyclohexyl)-5,6-dihydro-4H-2,3,5,10b-tetraaza-benzo[e]azulene] | 1.7 |
| CC(C)(C)OC(=O)N1Cc2cc(Cl)ccc2-n2c(nnc2[C@H]2CC[C@H](Oc3cccc(C(C)(C)C)c3)CC2)C1 [Example 38, trans-1-[4-(3-tert-Butyl-phenoxy)-cyclohexyl]-8-chloro-4H,6H-2,3,5,10b-tetraaza-benzo[e]azulene-5-carboxylic acid tert-butyl ester] | 18.2 |
| CC(C)(C)OC(=O)N1Cc2cc(Cl)ccc2-n2c(nnc2[C@H]2CC[C@H](Oc3ccccc3F)CC2)C1 [Example 43, trans-8-Chloro-1-[4-(2-fluoro-phenoxy)-cyclohexyl]-4H,6H-2,3,5,10b-tetraaza-benzo[e]azulene-5-carboxylic acid tert-butyl ester] | 6.17 |
| Fc1ccccc1O[C@H]1CC[C@H](c2nnc3n2-c2ccc(Cl)cc2CNC3)CC1 [Example 44, trans-8-Chloro-1-[4-(2-fluoro-phenoxy)-cyclohexyl]-5,6-dihydro-4H-2,3,5,10b-tetraaza-benzo[e]azulene hydrochloride] | 3.39 |
| CN1Cc2cc(Cl)ccc2-n2c(nnc2[C@H]2CC[C@H](Oc3ccccc3F)CC2)C1 [Example 45, trans-8-Chloro-1-[4-(2-fluoro-phenoxy)-cyclohexyl]-5-methyl-5,6-dihydro-4H-2,3,5,10b-tetraaza-benzo[e]azulene] | 3.63 |
| CC(C)(C)OC(=O)N1Cc2cc(Cl)ccc2-n2c(nnc2[C@H]2CC[C@H](Oc3ccccc3C#N)CC2)C1 [Example 46, trans-8-Chloro-1-[4-(2-cyano-phenoxy)-cyclohexyl]-4H,6H-2,3,5,10b-tetraaza-benzoazulene-5-carboxylic acid tert-butyl ester] | 2.88 |
| N#Cc1ccccc1O[C@H]1CC[C@H](c2nnc3n2-c2ccc(Cl)cc2CNC3)CC1 [Example 47, trans-2-[4-(8-Chloro-5,6-dihydro-4H-2,3,5,10b-tetraaza-benzo[e]azulen-1-yl)-cyclohexyloxy]-benzonitrile hydrochloride] | 1.2 |
| CN1Cc2cc(Cl)ccc2-n2c(nnc2[C@H]2CC[C@H](Oc3ccccc3C#N)CC2)C1 [Example 48, trans-2-[4-(8-Chloro-5-methyl-5,6-dihydro-4H-2,3,5,10b-tetraaza-benzoazulen-1-yl)-cyclohexyloxy]-benzonitrile] | 0.794 |
| Cc1ccccc1O[C@H]1CC[C@H](c2nnc3n2-c2ccc(Cl)cc2CN(C(=O)OC(C)(C)C)C3)CC1 [Example 49, trans-8-Chloro-1-(4-o-tolyloxy-cyclohexyl)-4H,6H-2,3,5,10b-tetraaza-benzoazulene-5-carboxylic acid tert-butyl ester] | 7.08 |
| Cc1ccccc1O[C@H]1CC[C@H](c2nnc3n2-c2ccc(Cl)cc2CN(C)C3)CC1 [Example 51, trans-8-Chloro-5-methyl-1-(4-o-tolyloxy-cyclohexyl)-5,6-dihydro-4H-2,3,5,10b-tetraaza-benzoazulene] | 3.72 |
| CC(C)(C)OC(=O)N1Cc2cc(Cl)ccc2-n2c(nnc2[C@H]2CC[C@H](Oc3cc(F)cc(F)c3)CC2)C1 [Example 52, trans-8-Chloro-1-[4-(3,5-difluoro-phenoxy)-cyclohexyl]-4H,6H-2,3,5,10b-tetraaza-benzoazulene-5-carboxylic acid tert-butyl ester] | 3.47 |
| CN1Cc2cc(Cl)ccc2-n2c(nnc2[C@H]2CC[C@H](Oc3cc(F)cc(F)c3)CC2)C1 [Example 54, trans-8-Chloro-1-[4-(3,5-difluoro-phenoxy)-cyclohexyl]-5-methyl-5,6-dihydro-4H-2,3,5,10b-tetraaza-benzoazulene] | 3.89 |
| CC(C)(C)OC(=O)N1Cc2cc(Cl)ccc2-n2c(nnc2[C@H]2CC[C@H](Oc3ccc4ccccc4c3)CC2)C1 [Example 55, trans-8-Chloro-1-[4-(naphthalen-2-yloxy)-cyclohexyl]-4H,6H-2,3,5,10b-tetraaza-benzoazulene-5-carboxylic acid tert-butyl ester] | 9.33 |
| CN1Cc2cc(Cl)ccc2-n2c(nnc2[C@H]2CC[C@H](Oc3ccc4ccccc4c3)CC2)C1 [Example 57, trans-8-Chloro-5-methyl-1-[4-(naphthalen-2-yloxy)-cyclohexyl]-5,6-dihydro-4H-2,3,5,10b-tetraaza-benzoazulene] | 5.75 |
| CC(C)(C)OC(=O)N1Cc2cc(Cl)ccc2-n2c(nnc2[C@H]2CC[C@H](Oc3cccnc3)CC2)C1 [Example 61, trans-8-Chloro-1-[4-(pyridin-3-yloxy)-cyclohexyl]-4H,6H-2,3,5,10b-tetraaza-benzoazulene-5-carboxylic acid tert-butyl ester] | 1.51 |
| CN1Cc2cc(Cl)ccc2-n2c(nnc2[C@H]2CC[C@H](Oc3cccnc3)CC2)C1 [Example 63, trans-8-Chloro-5-methyl-1-[4-(pyridin-3-yloxy)-cyclohexyl]-5,6-dihydro-4H-2,3,5,10b-tetraaza-benzoazulene] | 4.57 |
| CC(C)(C)OC(=O)N1Cc2cc(Cl)ccc2-n2c(nnc2[C@H]2CC[C@H](Oc3cncc(Cl)c3)CC2)C1 [Example 64, trans-8-Chloro-1-[4-(5-chloro-pyridin-3-yloxy)-cyclohexyl]-4H,6H-2,3,5,10b-tetraaza-benzoazulene-5-carboxylic acid tert-butyl ester] | 9.55 |
| CN1Cc2cc(Cl)ccc2-n2c(nnc2[C@H]2CC[C@H](Oc3cncc(Cl)c3)CC2)C1 [Example 66, trans-8-Chloro-1-[4-(5-chloro-pyridin-3-yloxy)-cyclohexyl]-5-methyl-5,6-dihydro-4H-2,3,5,10b-tetraaza-benzoazulene] | 9.12 |
| CC(C)(C)OC(=O)N1Cc2cc(Cl)ccc2-n2c(nnc2[C@H]2CC[C@H](Oc3ccccn3)CC2)C1 [Example 67, trans-8-Chloro-1-[4-(pyridin-2-yloxy)-cyclohexyl]-4H,6H-2,3,5,10b-tetraaza-benzoazulene-5-carboxylic acid tert-butyl ester] | 3.31 |
| Clc1ccc2c(c1)CNCc1nnc([C@H]3CC[C@H](Oc4ccccn4)CC3)n1-2 [Example 68, trans-8-Chloro-1-[4-(pyridin-2-yloxy)-cyclohexyl]-5,6-dihydro-4H-2,3,5,10b-tetraaza-benzoazulene hydrochloride] | 6.17 |
| CN1Cc2cc(Cl)ccc2-n2c(nnc2[C@H]2CC[C@H](Oc3ccccn3)CC2)C1 [Example 69, trans-8-Chloro-5-methyl-1-[4-(pyridin-2-yloxy)-cyclohexyl]-5,6-dihydro-4H-2,3,5,10b-tetraaza-benzoazulene] | 1.1 |
| CC(C)(C)OC(=O)N1Cc2cc(Cl)ccc2-n2c(nnc2[C@H]2CC[C@H](Oc3cccc(Cl)n3)CC2)C1 [Example 70, trans-8-Chloro-1-[4-(6-chloro-pyridin-2-yloxy)-cyclohexyl]-4H,6H-2,3,5,10b-tetraaza-benzo[e]azulene-5-carboxylic acid tert-butyl ester] | 9.12 |
| CN1Cc2cc(Cl)ccc2-n2c(nnc2[C@H]2CC[C@H](Oc3cccc(Cl)n3)CC2)C1 [Example 72, trans-8-Chloro-1-[4-(6-chloro-pyridin-2-yloxy)-cyclohexyl]-5-methyl-5,6-dihydro-4H-2,3,5,10b-tetraaza-benzo[e]azulene] | 2.4 |
| Clc1ccc(O[C@H]2CC[C@H](c3nnc4n3-c3ccc(Cl)cc3CNC4)CC2)nc1 [Example 74, trans-8-Chloro-1-[4-(5-chloro-pyridin-2-yloxy)-cyclohexyl]-5,6-dihydro-4H-2,3,5,10b-tetraaza-benzo[e]azulene hydrochloride] | 11.2 |
| CN1Cc2cc(Cl)ccc2-n2c(nnc2[C@H]2CC[C@H](Oc3ccc(Cl)cn3)CC2)C1 [Example 75, trans-8-Chloro-1-[4-(5-chloro-pyridin-2-yloxy)-cyclohexyl]-5-methyl-5,6-dihydro-4H-2,3,5,10b-tetraaza-benzo[e]azulene] | 2.82 |
| CC(C)(C)OC(=O)N1Cc2cc(Cl)ccc2-n2c(nnc2[C@H]2CC[C@H](Oc3ncccn3)CC2)C1 [Example 79, trans-8-Chloro-1-[4-(pyrimidin-2-yloxy)-cyclohexyl]-4H,6H-2,3,5,10b-tetraaza-benzo[e]azulene-5-carboxylic acid tert-butyl ester] | 2.57 |
| CC(C)(C)OC(=O)N1Cc2cc(Cl)ccc2-n2c(nnc2[C@H]2CC[C@@H](Oc3ncccn3)CC2)C1 [Example 80, cis-8-Chloro-1-[4-(pyrimidin-2-yloxy)-cyclohexyl]-4H,6H-2,3,5,10b-tetraaza-benzo[e]azulene-5-carboxylic acid tert-butyl ester] | 12.6 |
